Test results as given in patent US10513521B2, “Compositions and methods for inhibiting BMP” (The Brigham and Women's Hospital, Inc., priority 2014, dated 2019).
“And” between values parts separate entries of the source, which are not always exact repeats. Equal values may be shown once.

Columns and labels:
ALK1 [1] = target: ALK1 (Homo sapiens, UniProt P37023); experiment: TR-FRET enzymatic ALK kinase assay, ALK1
Protocol: (§1) Briefly, the ALKs enzymatic assay was initiated by dispense 2.5 μl enzyme in 1× kinase reaction buffer. The assay plate was then added with compounds followed by incubation at room temperature for 10 minutes. Then 2.5 μl/well substrate was added.

ALK6 = ALK6 (Homo sapiens, UniProt O00238); experiment: TR-FRET enzymatic ALK kinase assay, ALK6
Protocol: as §1

ALK1 [2] = target: T1, ALK1 (Bos taurus, UniProt A4FUX2); experiment: In-cell Western ALK1 assay (BAOEC cells, BMP9 as agonist); type: cell-based, Bovine; details: read-out: BMP9 ICW
T1 construct: The BAOEC cell line was employed for the measurement of ALK1 activity using BMP9 as the agonist; host or cells: BAOEC (bovine aortic endothelial cells)
T1 sequence (A4FUX2 23-503): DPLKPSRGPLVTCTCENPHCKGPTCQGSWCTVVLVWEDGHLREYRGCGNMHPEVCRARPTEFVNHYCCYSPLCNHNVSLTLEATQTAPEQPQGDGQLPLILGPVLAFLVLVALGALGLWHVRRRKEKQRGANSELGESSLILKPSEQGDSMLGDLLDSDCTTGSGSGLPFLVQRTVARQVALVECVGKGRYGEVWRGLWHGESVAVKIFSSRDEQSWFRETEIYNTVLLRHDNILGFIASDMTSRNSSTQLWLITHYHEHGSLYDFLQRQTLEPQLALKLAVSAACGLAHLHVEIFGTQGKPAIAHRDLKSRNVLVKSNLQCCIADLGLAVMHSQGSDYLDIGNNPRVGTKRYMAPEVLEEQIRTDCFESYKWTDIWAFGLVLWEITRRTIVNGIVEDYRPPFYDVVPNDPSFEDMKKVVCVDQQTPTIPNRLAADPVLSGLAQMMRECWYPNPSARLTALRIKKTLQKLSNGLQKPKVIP
Text: 3. In-Cell Western ALK1 and ALK2 Assays in 384-Well Plate Format.
We also optimized cell-based In-cell Western assays for measurements of ALK1 and ALK2 activities that were used to determine compound activities in these two kinases. The cell lines and agonists used were same as described in above cell-based HTRF ALK1 and ALK2 assays. The initial cell plating and compound treatment were also same. The main difference is the detection of phosphorylation status of SMAD1. In t-cell Western assay, the cells were fixed and phosphorylation status of SMAD1 was detected by the ELISA instead of using the HTRF assay kit in above assay.
C2C12 cells and RPMI 1640 medium were obtained from ATCC (Manassas, Va.) and Bovine Aortic endothelial Cells (BAOEC) and epithelial defined growth medium were purchased from Genlantis (San Deigo, Calif.). HyClone Fetal Bovine Serum was obtained from GE healthcare life sciences (Logan, Utah). BMP6 and BMP9 were purchased from R&D System (R&D). Anti-P-SMAD 1/5/8 rabbit mAb and anti-rabbit IgG, HRP-Linked antibody were purchased from Cell Signaling Technology (Danvers, Mass.). BioFX Chemiluminescent Ultra-Sensitive HRP Microwell Substrate ECL Reagent was obtained from SurModics (Edina, Minn.). The compound plates and the white solid MB assay plates were from Greiner Bio-one (Monroe, N.C.).
Similarly as described in above HTRF cell-based assay, this assay was performed in 384 well plate format. C2C12 were grown in T225 flasks were sterilely washed with 1×PBS pre-starved with medium containing 0.1% FBS for 20 hours. Pre-starved cells were then plated in 384 well plate in the starvation medium (containing in 0.1% FBS). After 4 hours, compound dilutions in DMSO were added to the assay plate and incubated for 30 minutes. The assay plate was then added with BMP6 for C2C12 cells or BMP9 for BAOEC cells and incubated for 30 minutes.
Cells were fixed with 50 ul ice-cold methanol and incubated for 15 min after removing the supernatant. The methanol was removed and filled with 0.5% glutaraldehyde and incubated at room temperature for 15 min. The cells were washed in the plate washer with PBS and blocked with 2% BSA in PBS for 1 h at room temperature on the rotator. After removing the blocking reagent, the cells were incubated with the anti-p-SMAD1 antibody in 2% BSA in PBS for overnight at 4° C. on rotator. The cells were washed with PBS in the plate washer and incubated with HRP conjugated second antibody in 2% BSA in PBS for 1 hour at room temperature. After a cell wash with PBS, ECL detection reagent was added and the plate was read in the luminesce mode in the ViewLux plate reader.

ALK4 = target: T2, ALK4 (Homo sapiens, UniProt P36896); experiment: TR-FRET enzymatic ALK kinase assay, ALK4
T2 sequence (P36896 24-505): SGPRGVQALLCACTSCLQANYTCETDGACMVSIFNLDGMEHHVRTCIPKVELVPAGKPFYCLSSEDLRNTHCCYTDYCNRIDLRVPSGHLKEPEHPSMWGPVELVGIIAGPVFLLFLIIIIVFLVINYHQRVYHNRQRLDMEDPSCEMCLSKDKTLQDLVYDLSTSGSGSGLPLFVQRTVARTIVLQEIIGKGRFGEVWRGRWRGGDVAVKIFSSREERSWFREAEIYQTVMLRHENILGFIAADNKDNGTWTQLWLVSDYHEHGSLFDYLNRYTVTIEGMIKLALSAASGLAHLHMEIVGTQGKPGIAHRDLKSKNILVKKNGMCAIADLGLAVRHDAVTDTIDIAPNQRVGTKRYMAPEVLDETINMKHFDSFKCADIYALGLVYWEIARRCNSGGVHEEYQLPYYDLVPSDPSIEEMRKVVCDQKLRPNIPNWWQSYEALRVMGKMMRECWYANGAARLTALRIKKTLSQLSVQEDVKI
Protocol: as §1

ALK1 [3] = target: T1, ALK1; experiment: HTRF pSMAD1 cell-based ALK1 assay (BAOEC cells, BMP9 as agonist); parameters: species or system Bovine
Protocol: 2. HTRF Cell-Based ALK1 and ALK2 Assays in 384-Well Plate Format We have developed a cell based ALK1 kinase assay and a cell-based ALK2 assay. The BAOEC cell line was employed for the measurement of ALK1 activity using BMP9 as the agonist. The C2C12 cell line was selected for the measurement of ALK2 activity using BMP6 as the agonist. The kinase specificity was defined by the specific cell line and agonist. The kinase activity was determined by the status of SMD 1/5/8 phosphorylation stimulated by the agonist.
HyClone Fetal Bovine Serum was obtained from GE healthcare life sciences (Logan, Utah). BMP6 and BMP9 were purchased from R&D System. […] The compound plates and the white solid MB assay plates were purchased from Greiner Bio-one (Monroe, N.C.).
HTRF optimization experiments were performed in 384 well plate format. […] Pre-starved cells were then plated in 384 well plate in the starvation medium (containing in 0.1% FBS). After 4 hours, compounds were added to the assay plate and incubated for 30 minutes. The assay plate was then added with BMP6 for C2C12 cells or BMP9 for BAOEC cells and incubated for 30 minutes.
HTRF assay was performed to measure the status of SMAD 1 phosphorylation after stimulated with the agonist (Table 3). This HTRF phospho SMAD1 cell assay was developed and optimized for the homogenous detection of phospho SMAD 1 levels in cells. […] The plate was incubated at room temperature for overnight.

BMP4 = BMP4 HTRF assay; type: cell-based

Chain of ALK6 (O00238 14-502): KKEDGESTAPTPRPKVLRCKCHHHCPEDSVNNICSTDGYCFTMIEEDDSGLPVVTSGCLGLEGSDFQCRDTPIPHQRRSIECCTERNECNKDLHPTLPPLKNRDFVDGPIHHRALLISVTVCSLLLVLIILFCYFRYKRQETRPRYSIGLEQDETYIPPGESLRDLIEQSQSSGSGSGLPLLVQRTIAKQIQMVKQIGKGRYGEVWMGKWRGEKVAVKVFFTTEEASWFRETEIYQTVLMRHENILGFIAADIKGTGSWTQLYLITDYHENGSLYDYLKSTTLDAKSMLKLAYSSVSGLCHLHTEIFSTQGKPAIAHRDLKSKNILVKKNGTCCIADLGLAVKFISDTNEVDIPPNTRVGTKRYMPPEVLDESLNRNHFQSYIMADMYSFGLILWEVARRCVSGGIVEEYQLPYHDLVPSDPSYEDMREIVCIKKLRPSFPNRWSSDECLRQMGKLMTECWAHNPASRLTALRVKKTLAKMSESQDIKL
Chain of ALK1 (Homo sapiens, UniProt P37023) (P37023 22-503): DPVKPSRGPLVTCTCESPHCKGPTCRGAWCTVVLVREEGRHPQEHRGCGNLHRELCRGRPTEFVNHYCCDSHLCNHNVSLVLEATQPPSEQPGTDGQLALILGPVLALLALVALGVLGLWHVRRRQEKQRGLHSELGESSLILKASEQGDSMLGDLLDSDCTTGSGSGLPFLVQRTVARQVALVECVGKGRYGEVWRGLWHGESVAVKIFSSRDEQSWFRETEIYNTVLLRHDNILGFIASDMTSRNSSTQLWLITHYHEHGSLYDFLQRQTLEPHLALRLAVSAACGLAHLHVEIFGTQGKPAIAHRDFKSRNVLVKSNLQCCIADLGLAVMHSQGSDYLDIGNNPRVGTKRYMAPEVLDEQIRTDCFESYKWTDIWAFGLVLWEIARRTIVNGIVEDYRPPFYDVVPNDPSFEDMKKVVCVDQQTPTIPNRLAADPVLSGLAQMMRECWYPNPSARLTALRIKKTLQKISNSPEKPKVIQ

With `C[S+](=O)([O-])c1cccc(-c2cnn3cc(-c4ccc(OC5(CN6CCCCC6)COC5)cc4)cnc23)c1` [Compound 93, 3-(3-(methylsulfonyl)phenyl)-6-(4-((3-(piperidin-1-ylmethyl)oxetan-3-yl)oxy)phenyl)pyrazolo[1,5-a]pyrimidine] the IC50 (ALK1 [1]) was 100 nM, the IC50 (ALK6) was 2900 nM and the IC50 (ALK1 [2]) was 3300 nM and 1400 nM and 3000 nM and 3800 nM and 3600 nM and 1200 nM and 1900 nM. For the same molecule, the IC50 (ALK4) was > 10000 nM, the IC50 (ALK1 [3]) was 180 nM and the IC50 (BMP4) was 100 nM.
`C[C@@H]1CNC[C@H](C)N1c1ccc(-c2cnc3c(-c4cccc(C(C)(C)O)c4)cnn3c2)cc1` [Compound 103, 2-(3-(6-(4-((2R,6S)-2,6-dimethylpiperazin-1-yl)phenyl)pyrazolo[1,5-a]pyrimidin-3-yl)phenyl)propan-2-ol] was tested, and the IC50 (ALK1 [1]) was 29 nM, the IC50 (ALK6) was 4300 nM and the IC50 (ALK1 [2]) was 1400 nM and 560 nM and 1000 nM and 760 nM and 1500 nM and 310 nM and 830 nM. For the same molecule, the IC50 (ALK4) was 4200 nM, the IC50 (ALK1 [3]) was 14 nM and the IC50 (BMP4) was 130 nM.
With `CC[S+](=O)([O-])c1cccc(-c2cnn3cc(-c4ccc(N5[C@H](C)CNC[C@@H]5C)cc4)cnc23)c1` [Compound 104, 6-(4-((2R,6S)-2,6-dimethylpiperazin-1-yl)phenyl)-3-(3-(ethylsulfonyl)phenyl)pyrazolo[1,5-a]pyrimidine] the IC50 (ALK1 [1]) was 34 nM, the IC50 (ALK6) was 7400 nM and the IC50 (ALK1 [2]) was 1100 nM and 360 nM and 860 nM. It also gave an IC50 (ALK4) of 4800 nM, an IC50 (ALK1 [3]) of 71 nM and an IC50 (BMP4) of 230 nM.
`C[S+](=O)([O-])c1cccc(-c2cnn3cc(-c4ccc(OC5(Cn6ccnc6)COC5)cc4)cnc23)c1` [Compound 105, 6-(4-((3-((1H-imidazol-1-yl)methyl)oxetan-3-yl)oxy)phenyl)-3-(3-(methylsulfonyl)phenyl)pyrazolo[1,5-a]pyrimidine] was tested, and the IC50 (ALK1 [1]) was 150 nM, the IC50 (ALK6) was > 10000 nM and the IC50 (ALK1 [2]) was 1400 nM and 2300 nM and 1200 nM. For the same molecule, the IC50 (ALK4) was > 10000 nM, the IC50 (ALK1 [3]) was 140 nM and the IC50 (BMP4) was 9 nM.
